Test results published in patent US20120252773A1, “Method and composition for inhibiting cell proliferation and angiogenesis” (priority 2005, published 2012).

What was measured:
[1] = test system: mouse transformed fibroblast cell line (L929); experiment: Cell growth inhibition, MTT, 7 days, L929; type: cell-based; conditions: L929, 7 days, compared with human cancer cell lines
Method: To measure the inhibitory activity of (2) on growth of HDMVEC cells (Clonetics, San Diego, Calif.), 2,000 cells were seeded in each well of a 96-well plate in […] of EGM medium (Clonetics) supplemented with 5% fetal bovine serum (Sigma). The plate was incubated at 37° C. in a tissue culture incubator for 24 h, and then various concentrations of (2) dissolved in EGM were added to each well in 5-10 μl aliquots. Four wells were used for each concentration. Medium in each well was renewed with fresh test solution added every other day. After 7 days of culture, the viable cells were measured using reagents from an MTT kit (Promega Corporation, Madison, Wis.), using instructions provided by the supplier. The number of viable cells in treated wells relative to those in control wells gave the percentage of inhibition.
Compound (2) was evaluated in several different human cancer cell lines for its effects on cell growth. The human cancer cell lines used (ATCC) were A549 lung cancer cells, U-87 brain cancer cells, SKOV-3 ovarian cancer cells, PC-3 non-androgen dependent prostate cancer cells, and MDA MB-231 estrogen-independent breast cancer cells. Human umbilical vein endothelial cells (HUVEC) and a mouse transformed fibroblast cell line (L929) were also included in the assay for comparison. […]

[2] = test system: HIF-1α protein in MDA-MB-231 human breast carcinoma cells; experiment: HIF-1α protein expression by immunoblotting, MDA-MB-231 cells; type: cell-based; conditions: MDA-MB-231, normoxic and anoxic
Method: Hypoxia experiments were performed in either of two ways. To produce a very low ambient oxygen concentration (effectively anoxia), we used a protocol in which cells were incubated in a 5% CO2-air atmosphere at 37° C. overnight and then placed in aluminum gas-exchange chambers maintained at 37° C. (Laderoute K R et al. Mol Cell Biol 22: 2515-2523, (2002); Laderoute K R et al. Mol Cell Biol 24: 4128-4137, (2004)). The chambers containing the cells were then placed in a 37° C. circulating water bath and the original atmosphere was repeatedly exchanged with 5% CO2-95% N2 using a manifold equipped with a vacuum pump and a gas cylinder. Atmospheric oxygen partial pressure (pO2) values of less than or equal to 0.01% (relative to air at pO2 of about 21%) can be achieved inside the chambers using this system. Following various hypoxic exposures, the chambers were opened an anaerobic glove box (Bactron X, Sheldon Manufacturing Inc., Cornelius, Oreg.; attached to a cylinder containing 5% CO2-95% N2) to prepare cell lysates without significant reoxygenation. All manipulations of hypoxic cells were performed in the anaerobic glove box. Atmospheric oxygen levels in both the chambers and the glove box have been measured and calibrated using a polarographic oxygen electrode (Oxygen Sensors, Inc., Norristown, Pa.). […]
We used immunoblotting to evaluate the experiments. […] After spinning at 9,000×g for 5 min at 4° C., the protein concentrations of the supernatants were determined by using a bicinchoninic acid assay (Pierce Biotechnology). […] Primary antibody binding was detected and visualized by using the ECL Plus Western Blotting Detection System (Amersham Pharmacia Biotech) according to the supplier's instructions. HIF-1α protein was detected by using an anti-HIF-1α monoclonal antibody (Novus Biologicals, Cat. No. NB100-123; diluted 1:500) and a horseradish peroxidase-conjugated anti-mouse IgG secondary antibody (Santa Cruz Biotechnology, Cat. No. sc-2062; diluted 1:20,000). […]

[3] = test system: A549 human non small cell lung cancer tumors; experiment: A549 NSCLC nude mouse xenograft model, tumor growth; type: in vivo; conditions: 30 days
Method: The xenograft model was conducted using 8 weeks old female athymic nude mice supplied by Charles River Laboratories. After 4 days of quarantine, A549 human non small cell lung cancer cells (3×10^6 cells/mouse) were subcutaneously implanted in the right flanks of mice in a 100 μl of Matrigel/phosphate buffered saline mixture (1:1). Animals were observed daily for tumor growth. When tumors became palpable, we began to measure the tumors using the formula V=W×L×H×π/6, where W and L represent the shorter and longer diameters of the tumor, H the height of the tumor. When tumor volumes reached approximately 50 mm^3, animals were randomized into control and treatment groups of 10 mice each based on tumor volumes. Only the mice with tumor volumes closest to the mean value were used. On the day of randomization, animals began to receive drug treatment. Compound (2) and Tarceva (Erlotinib) were orally dosed via gavage once daily. Cisplatin and Paclitaxel were dosed via intraperitoneal injection once weekly.
After initiation of drug treatment, tumor volumes were measured twice weekly and body weights once weekly. The study was carried out for 30 days and unscheduled sacrifices were performed on animals with tumor volumes greater than 1500 mm^3 or tumors developing ulceration or loss of 20% of their original body weights. […]

## C[C@@H]1Cc2cc(O)ccc2C2CCC3(C)/C(=C/COCCN(C)C)CCC3C21 (stereo partly drawn) [Compound (2), (E)-3-Hydroxy-7α-methyl-21-[(2-dimethylamino)ethoxy]-19-norpregna-1,3,5(10),17(20)-tetraene]
[1]
  effect on growth of L929 mouse fibroblast cells: much less
[2]
  HIF-1α protein expression: potent inhibitor
[3]; 10 mg/kg oral once daily
  growth rate of A549 tumors: drastically reduced the growth rate
[3]; 20 mg/kg oral once daily
  growth rate of A549 tumors: drastically reduced the growth rate
